Like-named read-outs stand apart in the source and are kept apart here.
Legend:
[1] = pH 6
[2] = SNAC solubility vs SNAC control, hydrotrope 200 mg/mL, pH 6
[3] = hydrotrope 200 mg/mL in water, pH 6, room temperature, 4 hours incubation

| Structure (SMILES) | Fold increase in solubility [2] | SNAC concentration [3] [mg/mL] | effect on SNAC solubility (FIG. 1) [1] | Fold increase in solubility (pH 6) | SNAC concentration (pH 6) [mg/mL] |
| --- | --- | --- | --- | --- | --- |
| CN(C)C(=O)c1ccccc1 [N,N dimethyl benzamide] | 38 | 22.46 |  |  |  |
| NC(=O)c1cccnc1 [Nicotinamide] |  |  | dose dependent effect |  |  |
| O=C([O-])c1ccccc1O.[Na+] [Sodium salicylate] |  |  |  | 2.7 | 1.59 |
| NC(N)=O [Urea] | 1.3 | 0.77 |  |  |  |

Second part, led by results:

| Fold increase in solubility [2] | SNAC concentration [3] [mg/mL] | effect on SNAC solubility (FIG. 1) [1] | Structure (SMILES) | Fold increase in solubility (pH 6) | SNAC concentration (pH 6) [mg/mL] |
| --- | --- | --- | --- | --- | --- |
| 9.6 | 5.66 |  | O=C(O[C@@H]1Cc2c(O)cc(O)cc2O[C@@H]1c1cc(O)c(O)c(O)c1)c1cc(O)c(O)c(O)c1 [Epigallocatechin gallate] |  |  |
| 7.8 | 4.58 |  | CCN(CC)C(=O)c1cccnc1 [N,N diethyl nicotinamide] |  |  |
